According to US4269839A, “Alkylthio-adenines used as bronchodilators” (Bristol-Myers Company, priority 1979, dated 1981):
≈ marks a conversion by molar mass, not a printed value.

How the values were obtained:
[1] = system: anesthetized guinea pig; assay: In vivo hypotensive activity, arterial blood pressure (ABP) in the guinea pig; details: intravenous, artificial ventilation
Method: (§1) B. In Vivo Bronchodilator and Hypotensive Activity.
(§2) The trachea of anesthetized guinea pig was cannulated and the ITP recorded on a polygraph under artificial ventilation. Arterial blood pressure (ABP; reflecting hypotensive activity) was also measured during the experiment. Either intravenous or intraduodenal routes of administration are used. […] The ratio of hypotensive ED20 /bronchodilating ED50 reflects an assessment of the separation of desirable bronchodilator activity from undesirable cardiovascular (hypotensive) effect in the compounds.

[2] = system: tracheal chains of guinea pig; assay: In vitro bronchodilator activity, tracheal chains of guinea pig (Magnus method); type: cell-based; details: Cavia porcellus, relative to maximum response to 0.1 mcg./ml. isoproterenol, read-out: EC50 (concentration which produces a relaxation which is 50% of the maximum response to 0.1 mcg./ml. of isoproterenol)
Method: A. In Vitro Bronchodilator Activity.
Tracheal chains of guinea pig were prepared by the method of A. Akcasu, Arch. Int. Pharmcodyn. […] The response to each test compound was recorded by the Magnus method and expressed as a percentage of the maximum response obtained with 0.1 mcg./ml. of isoproterenol prior to each experiment.

[3] = system: trachea of anesthetized guinea pig; assay: In vivo bronchodilator activity, decrease in intratracheal pressure (ITP) in the guinea pig; details: intravenous; for ED50: Cavia porcellus, anesthetized guinea pig, artificial ventilation, read-out: ITP ED50 (dose resulting in a 50% decrease in intratracheal pressure); for Ratio ABP/ITP (hypotensive ED20/bronchodilating ED50): separation of bronchodilator activity from hypotensive effect
Method: as §1, §2

EC50 [2] [µg/mL] | Compound | ABP ED20 (dose which reduces arterial blood pressure by 20%) [1] [mg/kg] | ED50 [3] [mg/kg] | Ratio ABP/ITP (hypotensive ED20/bronchodilating ED50) [3]
 | Cn1c(=O)c2[nH]cnc2n(C)c1=O [Aminophylline, reference compound] | 1.4 |  | 
0.02 (≈ 0.0691 µM) | CCCSc1nc(N)c2ncn(C3C=CCCC3)c2n1 (stereo not drawn) [Example 1, 9-(2-Cyclohexenyl)-2-n-propylthio-9H-adenine] | > 3 | 0.31 | > 9.7
0.19 (≈ 0.652 µM) | CCCSc1nc(N)c2ncn(C3CCCCC3)c2n1 [Example 2, 9-Cyclohexyl-2-n-propylthio-9H-adenine] | > 3 | 1.1 | > 2.7
